According to ChEMBL document CHEMBL5236671, “Synthesis and biological evaluation of novel aromatic amide derivatives as potential BCR-ABL inhibitors” (Bioorg Med Chem Lett, 2023):
Activity calls are given as the source filed them. No cut-off for these calls is given here.

How the values were obtained:
K562 [1] = assay: Antitumor activity against human K562 cells assessed as inhibition of cell growth; type: functional, cell-based
HL-60 = assay: Antitumor activity against human HL-60 cells assessed as inhibition of cell growth; type: functional, cell-based
MCF7 = assay: Antitumor activity against human MCF7 cells assessed as inhibition of cell growth; type: functional, cell-based
K562 [2] = assay: Antimigratory activity against human K562 cells assessed as decrease in cell migration at 2.5 to 10 uM; type: functional, cell-based; conditions: dose 2.5-10 µM
K562 [3] = assay: Induction of apoptosis in human K562 cells assessed as viable cells at 2.5 uM incubated for 24 hrs by Annexin V-FITC staining based flow cytometric analysis (reference value: 93.4 % ); type: functional; conditions: read-out: Activity
K562 [4] = assay: Induction of apoptosis in human K562 cells assessed as early apoptotic cells at 2.5 uM incubated for 24 hrs by Annexin V-FITC staining based flow cytometric analysis (reference value: 3.90 % ); type: functional
K562 [5] = assay: Induction of apoptosis in human K562 cells assessed as late apoptotic cells at 2.5 uM incubated for 24 hrs by Annexin V-FITC staining based flow cytometric analysis (reference value: 1.82 % ); type: functional
K562 [6] = assay: Induction of apoptosis in human K562 cells assessed as necrotic cells at 2.5 uM incubated for 24 hrs by Annexin V-FITC staining based flow cytometric analysis (reference value: 0.82 % ); type: functional
K562 [7] = assay: Induction of apoptosis in human K562 cells assessed as viable cells at 5 uM incubated for 24 hrs by Annexin V-FITC staining based flow cytometric analysis (reference value: 93.4 % ); type: functional; conditions: read-out: Activity
K562 [8] = assay: Induction of apoptosis in human K562 cells assessed as early apoptotic cells at 5 uM incubated for 24 hrs by Annexin V-FITC staining based flow cytometric analysis (reference value: 3.90 % ); type: functional
K562 [9] = assay: Induction of apoptosis in human K562 cells assessed as late apoptotic cells at 5 uM incubated for 24 hrs by Annexin V-FITC staining based flow cytometric analysis (reference value: 1.82 % ); type: functional
K562 [10] = assay: Induction of apoptosis in human K562 cells assessed as necrotic cells at 5 uM incubated for 24 hrs by Annexin V-FITC staining based flow cytometric analysis (reference value: 0.82 % ); type: functional
K562 [11] = assay: Induction of apoptosis in human K562 cells assessed as viable cells at 10 uM incubated for 24 hrs by Annexin V-FITC staining based flow cytometric analysis (reference value: 93.4 % ); type: functional; conditions: read-out: Activity
K562 [12] = assay: Induction of apoptosis in human K562 cells assessed as early apoptotic cells at 10 uM incubated for 24 hrs by Annexin V-FITC staining based flow cytometric analysis (reference value: 3.90 % ); type: functional
K562 [13] = assay: Induction of apoptosis in human K562 cells assessed as late apoptotic cells at 10 uM incubated for 24 hrs by Annexin V-FITC staining based flow cytometric analysis (reference value: 1.82 % ); type: functional
K562 [14] = assay: Induction of apoptosis in human K562 cells assessed as necrotic cells at 10 uM incubated for 24 hrs by Annexin V-FITC staining based flow cytometric analysis (reference value: 0.82 % ); type: functional
K562 [15] = assay: Induction of apoptosis in human K562 cells assessed as total apoptotic cells at 10 uM incubated for 24 hrs by Annexin V-FITC staining based flow cytometric analysis (reference value: 5.72 % ); type: functional
[16] = biological target: Tyrosine-protein kinase ABL1 (Homo sapiens) (UniProt P00519); assay: Inhibition of ABL1 phosphorylation in human K562 cells at 2.5 to 10 uM by Western blot analysis; type: cell-based; conditions: dose 2.5-10 µM
[17] = biological target: Crk-like protein (Homo sapiens) (UniProt P46109); assay: Inhibition of CRKL phosphorylation in human K562 cells at 2.5 to 10 uM by Western blot analysis; type: cell-based; conditions: dose 2.5-10 µM
K562 [18] = assay: Induction of apoptosis in human K562 cells assessed as increase in caspase-3 expression by Western blot analysis; type: functional, cell-based; conditions: dose 2.5-10 µM
K562 [19] = assay: Induction of apoptosis in human K562 cells assessed as increase in cleaved caspase-3 expression by Western blot analysis; type: functional, cell-based; conditions: dose 2.5-10 µM

Chain of Crk-like protein (Homo sapiens) (P46109 whole entry): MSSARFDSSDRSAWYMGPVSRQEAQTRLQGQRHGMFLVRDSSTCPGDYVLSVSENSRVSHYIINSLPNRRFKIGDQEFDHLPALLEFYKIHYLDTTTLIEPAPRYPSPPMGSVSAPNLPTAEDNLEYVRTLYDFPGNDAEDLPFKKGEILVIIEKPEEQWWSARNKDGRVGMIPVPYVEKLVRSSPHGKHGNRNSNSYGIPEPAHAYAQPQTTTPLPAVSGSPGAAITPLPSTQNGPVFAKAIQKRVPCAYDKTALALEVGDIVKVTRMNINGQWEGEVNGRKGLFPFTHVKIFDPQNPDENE
Chain of Tyrosine-protein kinase ABL1 (Homo sapiens) (P00519 whole entry): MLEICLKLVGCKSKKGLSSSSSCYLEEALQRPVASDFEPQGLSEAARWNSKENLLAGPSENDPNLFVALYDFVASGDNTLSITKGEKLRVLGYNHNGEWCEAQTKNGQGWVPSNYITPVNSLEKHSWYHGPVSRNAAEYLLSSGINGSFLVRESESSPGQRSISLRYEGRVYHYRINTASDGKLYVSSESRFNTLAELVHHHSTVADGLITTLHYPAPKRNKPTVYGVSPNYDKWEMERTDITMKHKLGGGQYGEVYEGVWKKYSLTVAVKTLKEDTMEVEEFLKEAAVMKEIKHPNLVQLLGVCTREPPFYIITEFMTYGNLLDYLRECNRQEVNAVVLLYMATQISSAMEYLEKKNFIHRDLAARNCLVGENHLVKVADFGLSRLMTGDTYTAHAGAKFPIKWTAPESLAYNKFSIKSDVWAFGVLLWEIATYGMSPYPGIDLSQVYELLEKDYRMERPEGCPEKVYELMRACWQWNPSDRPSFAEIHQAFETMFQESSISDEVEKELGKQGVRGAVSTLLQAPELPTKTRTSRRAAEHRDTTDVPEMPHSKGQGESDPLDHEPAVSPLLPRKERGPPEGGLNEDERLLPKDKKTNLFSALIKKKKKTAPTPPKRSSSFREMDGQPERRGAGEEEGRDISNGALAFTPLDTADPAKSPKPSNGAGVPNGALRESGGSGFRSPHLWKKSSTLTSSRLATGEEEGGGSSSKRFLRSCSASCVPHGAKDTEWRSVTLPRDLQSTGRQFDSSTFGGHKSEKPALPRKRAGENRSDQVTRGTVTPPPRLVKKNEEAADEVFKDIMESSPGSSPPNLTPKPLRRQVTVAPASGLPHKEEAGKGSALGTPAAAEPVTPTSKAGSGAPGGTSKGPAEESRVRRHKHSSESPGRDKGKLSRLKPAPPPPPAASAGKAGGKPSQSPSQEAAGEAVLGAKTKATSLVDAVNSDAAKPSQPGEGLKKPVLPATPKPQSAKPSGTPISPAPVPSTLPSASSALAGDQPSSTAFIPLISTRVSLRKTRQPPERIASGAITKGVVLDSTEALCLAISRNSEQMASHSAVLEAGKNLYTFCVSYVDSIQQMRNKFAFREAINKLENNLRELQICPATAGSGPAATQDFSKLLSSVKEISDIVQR

| SMILES | IC50 (K562 [1]) [µM] | IC50 (HL-60) [µM] | IC50 (MCF7) [µM] | also measured |
| --- | --- | --- | --- | --- |
| CC(=O)N1CCN(Cc2ccc(C(=O)Nc3cc(-n4cnc(C)c4)cc(C(F)(F)F)c3)cc2)CC1 | > 50 | > 50 | > 50 |  |
| CCCCN1CCN(Cc2ccc(C(=O)Nc3cc(-n4ccnc4)cc(C(F)(F)F)c3)cc2)CC1 | 22.4 | 34.9 | 30.2 |  |
| Cc1cn(-c2cc(NC(=O)c3ccc(CN4CCOC[C@@H]4C)cc3)cc(C(F)(F)F)c2)cn1 | 24.1 | 16.9 | 24.2 |  |
| Cc1cn(-c2cc(NC(=O)c3ccc(CN4CCN(C(C)C)CC4)cc3)cc(C(F)(F)F)c2)cn1 | 10.5 | 14.8 | 13.1 |  |
| Cc1cn(-c2cc(NC(=O)c3ccc(CN4CCN(C(C)(C)C)CC4)cc3)cc(C(F)(F)F)c2)cn1 | 5.66 | 16.8 | 23.5 | Activity (K562 [2]): Active; viability at 2.5 µM (K562 [3]): 86.3%; Activity (K562 [4]): 1.9%; Activity (K562 [5]): 10.84%; Activity (K562 [6]): 1%; viability at 5 µM (K562 [7]): 71.1%; Activity (K562 [8]): 2.8%; Activity (K562 [9]): 22.68%; Activity (K562 [10]): 3.44%; viability at 10 µM (K562 [11]): 57.9%; Activity (K562 [12]): 3.02%; Activity (K562 [13]): 34.56%; Activity (K562 [14]): 4.56%; Activity (K562 [15]): 37.58%; inhibition [16]: Active; inhibition [17]: Active; Activity (K562 [18]): Dose-Dependent Effect; Activity (K562 [19]): Dose-Dependent Effect |
| CCN1CCN(Cc2ccc(C(=O)Nc3cc(-n4cnc(C)c4)cc(C(F)(F)F)c3)cc2)CC1 | 13.3 | 17.2 | > 50 |  |
| CCCCN1CCN(Cc2ccc(C(=O)Nc3cc(-n4cnc(C)c4)cc(C(F)(F)F)c3)cc2)CC1 | 6.03 | 17.9 | 20.1 | Activity (K562 [2]): Active; inhibition [16]: Active; inhibition [17]: Active; Activity (K562 [18]): Dose-Dependent Effect; Activity (K562 [19]): Dose-Dependent Effect |
| Cc1cn(-c2cc(NC(=O)c3ccc(CN4CCN(C)CC4)cc3)cc(C(F)(F)F)c2)c(C)n1 | 10.8 | 17 | 9.61 |  |
| COc1ccc(NC(=O)c2ccc(CN3CCN(C)CC3)cc2)cc1-n1cc(C)nc1C | 31.4 | 23.4 | 29.1 |  |
| Cc1cn(-c2cc(NC(=O)c3ccc(CN4CCN(C(=O)C5CC5)CC4)cc3)cc(C(F)(F)F)c2)cn1 | 14.5 | 13.3 | > 50 |  |
| Cc1cn(-c2cc(NC(=O)c3ccc(CN4CC(C)OC(C)C4)cc3)cc(C(F)(F)F)c2)cn1 (stereo unspecified) | 13.2 | 22.1 | 40.6 |  |
| CN1CCN(Cc2ccc(C(=O)Nc3cc(-n4cnc(C#N)c4)cc(C(F)(F)F)c3)cc2)CC1 | 13.3 | 18.6 | 15.6 |  |
| Cc1ccc(NC(=O)c2ccc(CN3CCN(C)CC3)cc2)cc1Nc1nccc(-c2cccnc2)n1 [IMATINIB] | 14 | 17.2 | 25.6 | viability at 10 µM (K562 [11]): 76.7%; Activity (K562 [12]): 4.9%; Activity (K562 [13]): 18.2%; Activity (K562 [14]): 0.2%; Activity (K562 [15]): 23.1% |
| Cc1cn(-c2cc(NC(=O)c3ccc(CN4CCN(C)CC4)cc3)ccc2C)cn1 | 39.7 | > 50 | > 50 |  |
| Cc1cn(-c2cc(NC(=O)c3ccc(CN4CCN(C)CC4)cc3)cc(C(F)(F)F)c2)cn1 | 13.6 | 21.2 | 19 |  |
| Cc1cn(-c2cc(NC(=O)c3ccc(CN4CCCC4)cc3)cc(C(F)(F)F)c2)cn1 | 13.4 | 24.9 | 37.9 |  |
| Cc1cn(-c2cc(NC(=O)c3ccc(CN4CCOCC4)cc3)cc(C(F)(F)F)c2)cn1 | 23.6 | > 50 | > 50 |  |
| Cc1cn(-c2cccc(NC(=O)c3ccc(CN4CCN(C)CC4)cc3)c2)c(C)n1 | 15.8 | 36 | > 50 |  |
| CCCCN1CCN(Cc2ccc(C(=O)Nc3ccc(C)c(-n4cnc(C)c4)c3)cc2)CC1 | 33.2 | > 50 | > 50 |  |
| CN1CCN(Cc2ccc(C(=O)Nc3cc(-n4ccnc4)cc(C(F)(F)F)c3)cc2)CC1 | 15.4 | 18.8 | 29 |  |
| Cc1cn(-c2cc(NC(=O)c3ccc(CN4CCOC(C)C4)cc3)cc(C(F)(F)F)c2)cn1 (stereo unspecified) | 16.8 | 25.8 | > 50 |  |
